In publication PMC6084004 (2017):

Question: For `CSc1ncnc2c1c1cc(Cl)ccc1n2[C@@H]1O[C@H](CO)[C@@H](O)[C@@H]1O`, which melting point is on record?
Answer: The melting point was 181 to 183 °C.

Question: For `OC[C@H]1O[C@@H](n2c3ccc(Cl)cc3c3c(-c4ccoc4)ncnc32)[C@@H](O)[C@@H]1O`, which melting point is on record?
Answer: The melting point was 186 to 188 °C.

Question: Which melting point does the source give for `OC[C@H]1O[C@@H](n2c3ccc(Cl)cc3c3c(-c4ccoc4)ncnc32)[C@H](F)[C@@H]1O` here?
Answer: The melting point was 184 to 186 °C.

Question: For `OC[C@H]1O[C@@H](n2c3ccc(Cl)cc3c3c(-c4ccco4)ncnc32)[C@@H](O)[C@@H]1O`, which melting point is on record?
Answer: The melting point was 241 to 243 °C.

Question: With `OC[C@H]1O[C@@H](n2c3ccc(Cl)cc3c3c(-c4ccccc4)ncnc32)[C@@H](O)[C@@H]1O` as the molecule, how does the melting point read?
Answer: Its melting point is 183 to 185 °C.

Question: For `Cc1ncnc2c1c1cc(Cl)ccc1n2[C@@H]1O[C@H](CO)[C@@H](O)[C@@H]1O`, which melting point is on record?
Answer: Its melting point is 233 to 235 °C.

Question: Which melting point does the source give for `Nc1ncnc2c1c1cc(Cl)ccc1n2[C@@H]1O[C@H](CO)[C@@H](O)[C@@H]1O` here?
Answer: Its melting point is 298 to 301 °C.

Question: With `OC[C@H]1O[C@@H](n2c3ccc(Cl)cc3c3c(-c4ccccc4)ncnc32)[C@@H](F)[C@@H]1O` as the molecule, how does the melting point read?
Answer: Its melting point is 214 to 216 °C.

Question: For `OC[C@H]1O[C@@H](n2c3ccc(Cl)cc3c3c(-c4ccsc4)ncnc32)[C@H](F)[C@@H]1O`, which melting point is on record?
Answer: The melting point was 221 to 222 °C.

Question: For `OC[C@H]1O[C@@H](n2c3ccc(Cl)cc3c3c(-c4cccs4)ncnc32)[C@H](F)[C@@H]1O`, which melting point is on record?
Answer: The melting point was 206 to 211 °C.

Question: Which melting point does the source give for `Nc1ncnc2c1c1cc(Cl)ccc1n2[C@@H]1O[C@H](CO)[C@@H](O)[C@@H]1F` here?
Answer: The melting point was 267 to 272 °C.

Question: Which melting point does the source give for `Nc1ncnc2c1c1cc(Cl)ccc1n2[C@@H]1O[C@H](CO)[C@@H](O)[C@H]1F` here?
Answer: The melting point was 275 to 278 °C.

Question: With `CSc1ncnc2c1c1cc(Cl)ccc1n2[C@@H]1O[C@H](CO)[C@@H](O)[C@H]1F` as the molecule, how does the melting point read?
Answer: The melting point was 205 to 209 °C.

Question: For `OC[C@H]1O[C@@H](n2c3ccc(Cl)cc3c3c(-c4ccccc4)ncnc32)[C@H](F)[C@@H]1O`, which melting point is on record?
Answer: Its melting point is 192 to 193 °C.

Question: For `OC[C@H]1O[C@@H](n2c3ccc(Cl)cc3c3c(-c4ccco4)ncnc32)[C@@H](F)[C@@H]1O`, which melting point is on record?
Answer: Its melting point is 75 to 81 °C.

Question: For `CSc1ncnc2c1c1cc(Cl)ccc1n2[C@@H]1O[C@H](CO)[C@@H](O)[C@@H]1F`, which melting point is on record?
Answer: Its melting point is 230 to 231 °C.

Question: With `COc1ncnc2c1c1cc(Cl)ccc1n2[C@@H]1O[C@H](CO)[C@@H](O)[C@@H]1F` as the molecule, how does the melting point read?
Answer: Its melting point is 248 to 250 °C.

Question: For `OC[C@H]1O[C@@H](n2c3ccc(Cl)cc3c3c(-c4cccs4)ncnc32)[C@@H](O)[C@@H]1O`, which melting point is on record?
Answer: Its melting point is 192 to 194 °C.

Question: For `COc1ncnc2c1c1cc(Cl)ccc1n2[C@@H]1O[C@H](CO)[C@@H](O)[C@@H]1O`, which melting point is on record?
Answer: Its melting point is 238 to 241 °C.

Question: Which melting point does the source give for `Cc1ncnc2c1c1cc(Cl)ccc1n2[C@@H]1O[C@H](CO)[C@@H](O)[C@H]1F` here?
Answer: The melting point was 247 to 251 °C.

Question: With `OC[C@H]1O[C@@H](n2c3ccc(Cl)cc3c3c(-c4ccco4)ncnc32)[C@H](F)[C@@H]1O` as the molecule, how does the melting point read?
Answer: The melting point was 203 to 206 °C.

Question: With `OC[C@H]1O[C@@H](n2c3ccc(Cl)cc3c3c(-c4ccsc4)ncnc32)[C@@H](F)[C@@H]1O` as the molecule, how does the melting point read?
Answer: Its melting point is 240 to 241 °C.

Question: With `OC[C@H]1O[C@@H](n2c3ccc(Cl)cc3c3c(-c4cccs4)ncnc32)[C@@H](F)[C@@H]1O` as the molecule, how does the melting point read?
Answer: Its melting point is 225 to 227 °C.

Question: With `Cc1ncnc2c1c1cc(Cl)ccc1n2[C@@H]1O[C@H](CO)[C@@H](O)[C@@H]1F` as the molecule, how does the melting point read?
Answer: Its melting point is 211 to 216 °C.

Question: Which melting point does the source give for `OC[C@H]1O[C@@H](n2c3ccc(Cl)cc3c3c(-c4ccsc4)ncnc32)[C@@H](O)[C@@H]1O` here?
Answer: The melting point was 207 to 209 °C.

Question: For `OC[C@H]1O[C@@H](n2c3ccc(Cl)cc3c3c(-c4ccoc4)ncnc32)[C@@H](F)[C@@H]1O`, which melting point is on record?
Answer: Its melting point is 208 to 214 °C.
